Source: US8541588B2, “Sulfonamide derivatives” (Pfizer Limited, priority 2009, dated 2013)

Molecular target: T1, Nav1.7 (or SCN9A) channel; HEK cells stably transfected with hSCN9A (Homo sapiens, UniProt Q15858)
T1 construct: expressed in transfected cells
Experiment: Nav1.7 block, PatchXpress 7000 automated whole-cell voltage clamp, estimated IC50 (EIC50)
Format: cell-based
Settings: estimated IC50; hSCN9A HEK cells, PatchXpress platform; Examples 283-814

T1 sequence (Q15858 whole entry): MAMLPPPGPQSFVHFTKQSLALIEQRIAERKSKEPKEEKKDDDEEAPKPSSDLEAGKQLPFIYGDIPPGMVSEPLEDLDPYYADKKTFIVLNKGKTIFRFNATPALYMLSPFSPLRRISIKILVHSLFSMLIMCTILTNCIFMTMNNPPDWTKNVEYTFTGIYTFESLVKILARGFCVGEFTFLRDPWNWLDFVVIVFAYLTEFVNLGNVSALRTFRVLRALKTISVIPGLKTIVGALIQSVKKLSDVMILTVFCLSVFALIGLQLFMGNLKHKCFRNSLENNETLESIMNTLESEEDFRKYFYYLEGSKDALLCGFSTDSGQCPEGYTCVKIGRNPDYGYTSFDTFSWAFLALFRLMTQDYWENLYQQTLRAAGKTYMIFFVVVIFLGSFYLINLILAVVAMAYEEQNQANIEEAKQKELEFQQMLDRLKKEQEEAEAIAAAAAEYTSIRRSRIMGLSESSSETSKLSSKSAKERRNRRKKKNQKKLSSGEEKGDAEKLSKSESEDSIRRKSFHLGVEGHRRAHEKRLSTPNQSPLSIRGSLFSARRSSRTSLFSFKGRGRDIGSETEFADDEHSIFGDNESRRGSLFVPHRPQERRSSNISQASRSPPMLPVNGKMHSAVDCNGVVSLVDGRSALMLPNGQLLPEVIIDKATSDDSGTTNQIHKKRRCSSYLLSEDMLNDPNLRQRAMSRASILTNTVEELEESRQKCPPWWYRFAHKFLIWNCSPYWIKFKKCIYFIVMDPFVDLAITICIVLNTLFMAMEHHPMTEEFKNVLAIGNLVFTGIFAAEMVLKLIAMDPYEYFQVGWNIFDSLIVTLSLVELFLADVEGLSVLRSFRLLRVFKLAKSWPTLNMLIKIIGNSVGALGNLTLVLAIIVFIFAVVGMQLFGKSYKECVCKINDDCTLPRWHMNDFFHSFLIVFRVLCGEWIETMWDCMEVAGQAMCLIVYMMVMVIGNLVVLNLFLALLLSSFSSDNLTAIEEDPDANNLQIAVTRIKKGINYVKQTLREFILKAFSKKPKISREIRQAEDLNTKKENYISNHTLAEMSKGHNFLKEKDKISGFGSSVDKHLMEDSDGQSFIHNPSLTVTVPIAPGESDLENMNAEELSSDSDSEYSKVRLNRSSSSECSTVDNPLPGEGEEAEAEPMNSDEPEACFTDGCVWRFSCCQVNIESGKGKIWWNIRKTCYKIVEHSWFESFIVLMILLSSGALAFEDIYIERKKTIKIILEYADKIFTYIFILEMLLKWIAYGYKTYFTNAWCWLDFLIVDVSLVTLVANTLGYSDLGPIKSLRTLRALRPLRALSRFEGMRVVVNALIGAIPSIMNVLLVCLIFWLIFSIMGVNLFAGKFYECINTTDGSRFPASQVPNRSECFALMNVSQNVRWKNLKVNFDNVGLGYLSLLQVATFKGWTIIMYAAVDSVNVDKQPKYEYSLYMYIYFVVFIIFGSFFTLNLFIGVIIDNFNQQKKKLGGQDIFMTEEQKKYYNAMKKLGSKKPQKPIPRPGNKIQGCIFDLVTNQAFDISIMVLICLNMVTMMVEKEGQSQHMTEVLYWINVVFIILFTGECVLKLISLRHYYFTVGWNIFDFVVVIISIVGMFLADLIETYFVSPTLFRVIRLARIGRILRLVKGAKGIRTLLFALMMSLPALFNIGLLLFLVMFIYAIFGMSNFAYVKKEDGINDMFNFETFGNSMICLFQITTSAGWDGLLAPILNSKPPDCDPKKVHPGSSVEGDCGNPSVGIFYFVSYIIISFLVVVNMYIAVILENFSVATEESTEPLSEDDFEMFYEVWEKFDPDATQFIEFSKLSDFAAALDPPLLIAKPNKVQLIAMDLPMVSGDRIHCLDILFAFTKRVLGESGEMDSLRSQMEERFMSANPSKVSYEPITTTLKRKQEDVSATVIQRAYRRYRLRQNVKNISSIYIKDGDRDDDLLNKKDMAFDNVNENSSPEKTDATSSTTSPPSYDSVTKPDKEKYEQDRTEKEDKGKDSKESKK

Going from `N#Cc1cc(S(=O)(=O)Nc2nccs2)ccc1Oc1cccc(-c2ccccc2)c1` [Example 778, 4-(biphenyl-3-yloxy)-3-cyano-N-1,3-thiazol-2-ylbenzenesulfonamide] to `Cn1nccc1-c1cc(OC(F)(F)F)ccc1Oc1ccc(S(=O)(=O)Nc2nccs2)cc1C#N` [Example 783, 3-cyano-4-[2-(1-methyl-1H-pyrazol-5-yl)-4-(trifluoromethoxy)phenoxy]-N-1,3-thiazol-2-ylbenzenesulfonamide], the IC50 falls from 470 nM to 7.8 nM (60-fold). The second is the more potent here.

Going from `Cn1nc(C(F)(F)F)cc1-c1ccc(F)c(Oc2ccc(S(=O)(=O)Nc3nccs3)cc2C#N)c1` [Example 779, 3-cyano-4-{2-fluoro-5-[1-methyl-3-(trifluoromethyl)-1H-pyrazol-5-yl]phenoxy}-N-1,3-thiazol-2-ylbenzenesulfonamide] to `Cn1nccc1-c1cc(OC(F)(F)F)ccc1Oc1ccc(S(=O)(=O)Nc2ncns2)cc1C#N` [Example 795, 3-cyano-4-[2-(1-methyl-1H-pyrazol-5-yl)-4-(trifluoromethoxy)phenoxy]-N-1,2,4-thiadiazol-5-ylbenzenesulfonamide], the IC50 falls from 210 nM to 4.6 nM (46-fold).

`Cn1nccc1-c1ccc(I)cc1Oc1ccc(S(=O)(=O)Nc2ncc(F)s2)cc1C#N` [Example 780, 3-cyano-N-(5-fluoro-1,3-thiazol-2-yl)-4-[5-iodo-2-(1-methyl-1H-pyrazol-5-yl)phenoxy]benzenesulfonamide] and `N#Cc1cc(S(=O)(=O)Nc2ncc(Cl)s2)ccc1Oc1ccc(F)cc1-c1cn[nH]c1` [Example 785, N-(5-Chloro-1,3-thiazol-2-yl)-3-cyano-4-[4-fluoro-2-(1H-pyrazol-4-yl)phenoxy]benzenesulfonamide] are within 1.5-fold of each other in IC50: 32 nM for the first, 40 nM for the second.

Going from `O=S(=O)(Nc1ncns1)c1cc(F)c(Oc2ccc(F)cc2-c2ccn[nH]2)cc1F` [Example 781, 2,5-difluoro-4-[4-fluoro-2-(1H-pyrazol-5-yl)phenoxy]-N-1,2,4-thiadiazol-5-ylbenzenesulfonamide] to `O=S(=O)(Nc1ncns1)c1cc(F)c(Oc2ccc(C(F)(F)F)cc2-c2ccn[nH]2)cc1F` [Example 789, 2,5-difluoro-4-[2-(1H-pyrazol-5-yl)-4-(trifluoromethyl)phenoxy]-N-1,2,4-thiadiazol-5-ylbenzenesulfonamide], the IC50 falls from 22 nM to 2.1 nM (10-fold). The second is the more potent here.

Compared with `N#Cc1cc(S(=O)(=O)Nc2ncc(Cl)s2)ccc1Oc1ccc(Cl)cc1-c1cn[nH]c1` [Example 786, N-(5-Chloro-1,3-thiazol-2-yl)-3-cyano-4-[4-chloro-2-(1H-pyrazol-4-yl)phenoxy]benzenesulfonamide], `N#Cc1cc(S(=O)(=O)Nc2ncns2)ccc1Oc1cc(F)c(Cl)cc1-c1cn[nH]c1` [Example 804, 4-[4-chloro-5-fluoro-2-(1H-pyrazol-4-yl)phenoxy]-3-cyano-N-1,2,4-thiadiazol-5-ylbenzenesulfonamide] is 6.3-fold lower in IC50: 7.6 nM for the first, 1.2 nM for the second.

`Nc1cc(-c2cc(Cl)ccc2Oc2cc(F)c(S(=O)(=O)Nc3ncns3)cc2F)ccn1` [Example 787, 4-[2-(2-aminopyridin-4-yl)-4-chlorophenoxy]-2,5-difluoro-N-1,2,4-thiadiazol-5-ylbenzenesulfonamide] and `Nc1cc(-c2cc(Cl)ccc2Oc2cc(F)c(S(=O)(=O)Nc3nncs3)cc2Cl)ccn1` [Example 814, 4-[2-(2-aminopyridin-4-yl)-4-chlorophenoxy]-5-chloro-2-fluoro-N-1,3,4-thiadiazol-2-ylbenzenesulfonamide] are within 1.5-fold of each other in IC50: 7.2 nM for the first, 6.2 nM for the second.

Going from `O=S(=O)(Nc1ncns1)c1cc(F)c(Oc2ccc(C(F)(F)F)cc2-c2cn[nH]c2)cc1F` [Example 790, 2,5-difluoro-4-[2-(1H-pyrazol-4-yl)-4-(trifluoromethyl)phenoxy]-N-1,2,4-thiadiazol-5-ylbenzenesulfonamide] to `O=S(=O)(Nc1ncns1)c1cc(F)c(Oc2ccc(C(F)(F)F)cc2-c2ccnnc2)cc1F` [Example 805, 2,5-difluoro-4-[2-pyridazin-4-yl-4-(trifluoromethyl)phenoxy]-N-1,2,4-thiadiazol-5-ylbenzenesulfonamide], the IC50 rises from 1.2 nM to 6.2 nM (5.2-fold).

Compared with `N#Cc1cc(S(=O)(=O)Nc2ncns2)ccc1Oc1ccc(OC(F)(F)F)cc1-c1ccn[nH]1` [Example 793, 3-cyano-4-[2-(1H-pyrazol-5-yl)-4-(trifluoromethoxy)phenoxy]-N-1,2,4-thiadiazol-5-ylbenzenesulfonamide], `N#Cc1cc(S(=O)(=O)Nc2cscn2)ccc1Oc1ccc(Cl)cc1-c1ccnn1C1CNC1` [Example 809, 4-[2-(1-azetidin-3-yl-1H-pyrazol-5-yl)-4-chlorophenoxy]-3-cyano-N-1,3-thiazol-4-ylbenzenesulfonamide] is 12-fold higher in IC50: 3.1 nM for the first, 38 nM for the second. The first is the more potent here.

`Nc1[nH]ncc1-c1cc(Cl)ccc1Oc1cc(F)c(S(=O)(=O)Nc2ncns2)cc1Cl` [Example 794, 4-[2-(5-amino-1H-pyrazol-4-yl)-4-chlorophenoxy]-5-chloro-2-fluoro-N-1,2,4-thiadiazol-5-ylbenzenesulfonamide] and `Nc1n[nH]cc1-c1cc(Cl)ccc1Oc1cc(F)c(S(=O)(=O)Nc2nncs2)cc1Cl` [Example 803, 4-[2-(5-amino-1H-pyrazol-4-yl)-4-chlorophenoxy]-5-chloro-2-fluoro-N-1,3,4-thiadiazol-2-ylbenzenesulfonamide] are the same in IC50: 4.8 nM for the first, 4.8 nM for the second.

Going from `O=S(=O)(Nc1ncns1)c1cc(Cl)c(Oc2ccc(Cl)cc2C2CCNCC2)cc1F` [Example 796, 5-chloro-4-(4-chloro-2-piperidin-4-ylphenoxy)-2-fluoro-N-1,2,4-thiadiazol-5-ylbenzenesulfonamide] to `O=S(=O)(Nc1ccc(F)cn1)c1cc(Cl)c(Oc2ccc(C(F)(F)F)cc2C2CCNCC2)cc1F` [Example 800, 5-Chloro-2-fluoro-N-(5-fluoropyridin-2-yl)-4-[2-piperidin-4-yl-4-(trifluoromethyl)phenoxy]benzenesulfonamide], the IC50 rises from 2.1 nM to 52 nM (25-fold).

`CN1CC(n2nccc2-c2cc(F)ccc2Oc2cc(F)c(S(=O)(=O)Nc3ncns3)cc2Cl)C1` [Example 806, 5-Chloro-2-fluoro-4-{4-fluoro-2-[1-(1-methylazetidin-3-yl)-1H-pyrazol-5-yl]phenoxy}-N-1,2,4-thiadiazol-5-ylbenzenesulfonamide] and `O=S(=O)(Nc1ncns1)c1cc(Cl)c(Oc2ccc(F)cc2-c2ccnn2C2CNC2)cc1F` [Example 810, 4-[2-(1-azetidin-3-yl-1H-pyrazol-5-yl)-4-fluorophenoxy]-5-chloro-2-fluoro-N-1,2,4-thiadiazol-5-ylbenzenesulfonamide] are within 1.5-fold of each other in IC50: 5.4 nM for the first, 3.8 nM for the second.

Going from `CN1CC(n2nccc2-c2cc(F)ccc2Oc2cc(F)c(S(=O)(=O)Nc3cscn3)cc2Cl)C1` [Example 807, 5-Chloro-2-fluoro-4-{4-fluoro-2-[1-(1-methylazetidin-3-yl)-1H-pyrazol-5-yl]phenoxy}-N-1,3-thiazol-4-ylbenzenesulfonamide] to `O=S(=O)(Nc1cscn1)c1cc(Cl)c(Oc2ccc(F)cc2-c2ccnn2C2CNC2)cc1F` [Example 808, 4-[2-(1-Azetidin-3-yl-1H-pyrazol-5-yl)-4-fluorophenoxy]-5-chloro-2-fluoro-N-1,3-thiazol-4-ylbenzenesulfonamide], the IC50 falls from 15 nM to 7 nM (2.1-fold). The second is the more potent here.

Work on `Nc1cc(-c2cc(Cl)ccc2Oc2cc(F)c(S(=O)(=O)Nc3ccncn3)cc2Cl)ccn1` [Example 812, 4-[2-(2-aminopyridin-4-yl)-4-chlorophenoxy]-5-chloro-2-fluoro-N-pyrimidin-4-ylbenzenesulfonamide] yielded an IC50 of 5.1 nM.

Same assay, conditions: estimated IC50; hSCN9A HEK cells, PatchXpress platform; Examples 815-1040

Going from `N#Cc1cc(S(=O)(=O)Nc2ncns2)ccc1Oc1ccc(I)cc1-c1cccc(CN2CCC2)c1` [Example 815, 4-{[3′-(azetidin-1-ylmethyl)-5-iodobiphenyl-2-yl]oxy}-3-cyano-N-1,2,4-thiadiazol-5-ylbenzenesulfonamide] to `N#Cc1cc(S(=O)(=O)Nc2nncs2)ccc1Oc1ccc(Cl)cc1-c1ccnc(N)c1` [Example 818, 4-[2-(2-aminopyridin-4-yl)-4-chlorophenoxy]-3-cyano-N-1,3,4-thiadiazol-2-ylbenzenesulfonamide], the IC50 rises from 0.6 nM to 320 nM (530-fold).

Going from `Cc1[nH]ncc1-c1cc(Cl)ccc1Oc1cc(F)c(S(=O)(=O)Nc2nncs2)cc1Cl` [Example 816, 5-chloro-4-[4-chloro-2-(5-methyl-1H-pyrazol-4-yl)phenoxy]-2-fluoro-N-1,3,4-thiadiazol-2-ylbenzenesulfonamide] to `O=S(=O)(Nc1nncs1)c1cc(F)c(Oc2ccc(Cl)cc2-c2cn[nH]c2)cc1F` [Example 821, 4-[4-chloro-2-(1H-pyrazol-4-yl)phenoxy]-2,5-difluoro-N-1,3,4-thiadiazol-2-ylbenzenesulfonamide], the IC50 rises from 11 nM to 100 nM (9.1-fold).

First: Cc1nnc(NS(=O)(=O)c2cc(Cl)c(Oc3ccc(Cl)cc3-c3ccnn3C)cc2F)s1 [Example 817, 5-chloro-4-[4-chloro-2-(1-methyl-1H-pyrazol-5-yl)phenoxy]-2-fluoro-N-(5-methyl-1,3,4-thiadiazol-2-yl)benzenesulfonamide]
Second: COCCn1ccc(-c2cc(Cl)ccc2Oc2cc(F)c(S(=O)(=O)Nc3nncs3)cc2Cl)n1 [Example 819, 5-chloro-4-{4-chloro-2-[1-(2-methoxyethyl)-1H-pyrazol-3-yl]phenoxy}-2-fluoro-N-1,3,4-thiadiazol-2-ylbenzenesulfonamide]
The IC50 of the first is 8-fold lower: 300 nM for the first, 2400 nM for the second. The first is the more potent here.

Compared with `Nc1cc(-c2cc(Cl)ccc2Oc2cc(F)c(S(=O)(=O)Nc3nncs3)cc2F)ccn1` [Example 820, 4-[2-(2-aminopyridin-4-yl)-4-chlorophenoxy]-2,5-difluoro-N-1,3,4-thiadiazol-2-ylbenzenesulfonamide], `O=C(c1cccc(-c2cc(Cl)ccc2Oc2cc(F)c(S(=O)(=O)Nc3ncns3)cc2Cl)c1)N1CCC1` [Example 823, 4-{[3′-(azetidin-1-ylcarbonyl)-5-chlorobiphenyl-2-yl]oxy}-5-chloro-2-fluoro-N-1,2,4-thiadiazol-5-ylbenzenesulfonamide] is 31-fold lower in IC50: 230 nM for the first, 7.4 nM for the second. The second is the more potent here.

Molecule `O=C(c1cccc(-c2cc(Cl)ccc2Oc2cc(F)c(S(=O)(=O)Nc3ncns3)cc2Cl)c1)N1CC(O)C1` [Example 824, 5-chloro-4-({5-chloro-3′-[(3-hydroxyazetidin-1-yl)carbonyl]biphenyl-2-yl}oxy)-2-fluoro-N-1,2,4-thiadiazol-5-ylbenzenesulfonamide] has an IC50 of 4.7 nM.
